The results in this text go back to patent US20220241314A1, “COMPOSITIONS AND METHODS FOR TREATMENT OF HEPATITIS B VIRUS INFECTION” (priority 2019, published 2022).

{ppp} = triphosphate

For data set [1], the system named is HBV cccDNA. The data set can be described thus: Subcellular compartment analysis of PF-RC DNA and cccDNA (synchronous infection, cell fractionation). The conditions noted are these: HepG2-hNTCP, treated from time 0 through 3 dpi; F7 10 μM, poly-U/UC PAMP 100 ng/ml. The data set is classed as cell-based, HBV (Genotype D). The procedure:
FIG. 4A-4D illustrate subcellular compartment analysis of antiviral activity. (4A) and (4C) Scheme of HBV infection with F7 treatment (4A) or poly-U/UC PAMP treatment (4C). HepG2-hNTCP cultures were inoculated with HBV at moi 1000 Geq/cell for 24 hr. On treatment day 0 the cultures received F7 (10 μM) or poly-U/UC PAMP (100 ng/ml). Cells were harvested for production of Hirt extracts at each time point shown through three days. Parallel cultures were harvested for Western blot analysis to monitor Lamin B1 and Calnexin as markers of […] and cytosol respectively. (4B) and (4D) DNA was analyzed by Southern blot using HBV-specific DNA probe. Viral protein-free DNAs (protein-free Relaxed Circular DNA [PF-RC DNA]and cccDNA) are indicated. The positions of mass markers are indicated. Lower panels show Western blot of Lamin B1 and Calnexin abundance.
Cells were inoculated with HBV for 6 hours at 4° C., then the inoculum was removed, cells rinsed and placed in 37° C. media to initiate synchronous infection (time 0), at which time the cells were treated with F7 (FIG. 4A), or poly-U/UC PAMP (FIG. 4C) through 3 dpi. Whole cell (W), nuclear (N), and cytoplasmic (C) extracts were harvested over the time course, at 3 and 6 hours post-infection, and daily over 1-3 dpi, and PF-RC and cccDNA abundance were analyzed by Southern blot. […] For poly-U/UC PAMP treatment, cells were also harvested over a similar time course (see FIG. 4C).
HBV entry assay and cell fractionation: Cells were inoculated with HBV in presence of 4% PEG for 6 hours at 4°C. To assess HBV entry, inoculum was removed by washing with PBS that included proteinase K and cells were shifted to 37° C. post-attachment. After incubation and treatment, the cells were lysed in a hypotonic buffer (100 MM HEPES, 15 mM MgCl2, 100 mM KCL and Nonidet P-40), and homogenized with a dounce homogenizer. The cytoplasmic fraction was separated from nuclei pellet by centrifugation (6000×g for 5 min at 4° C.). Nuclei pellet was resuspended in extraction buffer (20 mM HEPES, 15 mM MgCl2, 420 mM NaCl, 0.2 mM EDTA and 25% (v/v) Glycerol including DTI and protease inhibitor cocktail). Each cellular fraction was mixed with 1% SDS (v/v) and protein-free DNA was extracted using the Hirt extraction method.

Data set [2] deals with RIG-I. The data set can be described thus: IRF3 activation in RIG-I or MDA5 knockout HepG2-hNTCP cells (immunoblot). In kind it is cell-based, human. Conditions: 24 hours. The procedure: FIGS. 6A-6D illustrate that F7 and poly-U/UC PAMP specifically signal IRF3 activation through RIG-I to suppress HBV cccDNA. (6A) F7 was administered for 24 hours to HepG2-hNTCP-NT (expressing non-targeting guide RNA), RKO (RIG-I knockout expressing RIG-I-targeting guide RNA), and MKO (MDA5-knock out expressing MDA5-targeting guide RNA). Cells were harvested and analyzed by immunoblot. The levels of protein expression by p-IRF3 (S386 phosphorylated, active IRF3), IRF3 (total IRF), IFIT1, RIG-I, and MDA5 relative to the expression level of tubulin were determined using respective antibodies. (6B) HepG2-hNTCP-NT, RKO, and MKO cells were treated with 100 ng,/ml of X-RNA or 100 ng/ml or 200 ng/ml of poly-U/UC PAMP for 24 hr. Cells were harvested and analyzed by immunoblot as in (6A). (6C and 6D) Cells were infected with HBV at moi of 1000 Geq/cell. After 24 hour cultures were treated with DMSO (−; negative control), CsA (treatment control), (6C) 10 μM) or F7 or (6D) X RNA or poly-U/UC PAMP. Three days later the cells were harvested, Hirt extracts prepared and subjected to Southern blot analysis using as HBV-DNA probe. The positions of mass markers are indicated. Values beneath each lane show percent cccDNA remaining compared to control treatment.
In order to ascertain whether the activation of IRF3 and suppression of cccDNA in HBV-infected cells by F7 or poly-U/UC PAMP treatment was dependent on RIG-I rather than occurring as an off-target effect of IRF3 agonist treatment, HepG2-hNTCP cells expressing non-targeting guide RNA (HepG2-hNTCP-NT), or guide RNA for knockout (KO) of RIG-I expression (HepG2-hNTCP-RKO) or MDA5 (HepG2-hNTCP-MKO) were produced using CRISPR/Cas9 genome editing technology. […] Next, each cell population was infected with HBV followed by a single treatment with F7 or poly-U/UC PAMP at 1 dpi. Cells were harvested at 3 dpi for Southern blot analysis of cccDNA levels. Parallel cultures of each cell population were treated with DMSO or single dose X-RNA (negative control) or with CsA as a treatment control. […]
Background: A western blot detects proteins with antibodies after separation by electrophoresis.

Data set [3] relates to IRF3. The data set can be described thus: Immunofluorescence analysis of IRF3 translocation. In kind it is cell-based, human. The conditions noted are these: HepG2-hNTCP cells, 24 hours; F7 10 μM; poly-U/UC PAMP or X-RNA 200 ng/ml in liposome.
The mark [4] stands for this setting: HepG2-hNTCP-RKO (RIG-I knockout) cells.

Take `O=C(Nc1ccc2nc(NC(=O)c3ccc4ccccc4c3)sc2c1)c1ccccc1` [F7, N-(6-benzamido-1,3-benzothiazol-2-yl)naphthalene-2-carboxamide]: the “PF-RC DNA in subcellular fractions, Southern blot” value in data set [1] is on record as “accumulation was reduced after 2-3 dpi”. In addition, in data set [1], the “cccDNA accumulation, Southern blot” value is “delayed and reduced”. For the same molecule, the “phosphorylated/activated IRF3 and IFIT1 expression” value in data set [2] (HepG2-hNTCP-NT control and HepG2-hNTCP-MKO (MDA5 knockout) cells) is recorded as “fully respond to F7”; in data set [2] (setting [4]), “do not respond to treatment”. For the same molecule, in data set [3], the “innate immune activation marked by IRF3 translocation into the nucleus” value was “specifically induced innate immune activation”.

B1: poly-U/UC PAMP: ~100 nt PAMP motif from the HCV genome comprising 5′ppp and the poly U/UC region, recognized by RIG-I; formulated in liposome (nucleic acid)
chain: GGCCAUCCUGUUUUUUUCCCUUUUUUUUUUUCUUUUUUUUUUUUUUUUUUUUUUUUUUUUUUUUUUCUCCUUUUUUUUUCCUCUUUUUUUCCUUUUCUUUCCUUU
modifications: RNA, 5' {ppp}, backbone and methylation of C not given here; formulated in liposome
notes: ~100 nt PAMP motif from the HCV genome comprising 5′ppp and the poly U/UC region, recognized by RIG-I; formulated in liposome
On to B1, for which, in data set [1], the “PF-RC DNA in subcellular fractions, Southern blot” value was “Nuclear PF-RC DNA levels were reduced” and the “cccDNA accumulation, Southern blot” value is “reduction of cccDNA”. Moreover, the “phosphorylated/activated IRF3 and IFIT1 expression” value in data set [2] (setting [4]) is recorded as “do not respond to treatment”. Further, the “innate immune activation marked by IRF3 translocation into the nucleus” value in data set [3] was “specifically induced innate immune activation”.
